# Target: chorismate mutase (CM) (Mycobacterium tuberculosis, UniProt P9WIB9)
# Assay: biochemical
# Settings: read-out: % Inhibition @ 30 μM ^a
# Chain of chorismate mutase (CM) (P9WIB9 34-199): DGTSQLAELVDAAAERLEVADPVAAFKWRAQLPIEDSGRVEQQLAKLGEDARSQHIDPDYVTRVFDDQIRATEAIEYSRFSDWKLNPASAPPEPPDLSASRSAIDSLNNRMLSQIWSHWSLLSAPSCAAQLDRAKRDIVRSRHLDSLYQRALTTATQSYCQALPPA
smiles,measurement,value
"COc1ccc(CCNc2c([N+](=O)[O-])cc(C(=O)O)cc2S(N)(=O)=O)cc1OC [G, 4-(3,4-dimethoxyphenethylamino)-3-nitro-5-sulfamoylbenzoic acid]",inhibition at 30 µM,57%

# — paper PMC9047634 (RSC Advances, 2019)
